Experimental data published in US20120220577A1, “GLYCINE B ANTAGONISTS” (Merz Pharma GmbH & Co KgaA, priority 2009, published 2012).

Molecular target: T1, glycine binding pocket of the NMDA receptor (Rattus norvegicus, UniProt P35439)
T1 construct: For isolation of the cell membranes, the cortices are homogenized; from tissue; host or cells: rat cerebral cortex membranes (male Sprague-Dawley)
Assay: [3H]MDL-105,519 displacement studies (rat cortical membranes)
Settings: displacement of 2 nM [3H]-MDL-105,519, rat cortical membranes; read-out: NMDA-MDL 105519-r-CTX - IC50
Experimental: Anaesthetised male Sprague-Dawley rats (200-250 g, Janvier, Le Genest-Isle, France) are decapitated and their brains removed rapidly. […] For isolation of the cell membranes, the cortices are homogenized in 20 volumes of ice-cold 0.32 M sucrose (Sigma-Aldrich, Taufkirchen, Germany) using a glass-Teflon homogenizer. The homogenate is centrifuged at 1000×g for 10 minutes, the pellet is discarded and the supernatant centrifuged at 20,000×g for 20 minutes. The resulting pellet is re-suspended in 20 volumes of distilled water and centrifuged for 20 minutes at 8000×g. The supernatant and the buffy coat are then centrifuged three times (48,000×g for 20 minutes) in the presence of 50 mM Tris-HCl, pH 8.0 (assay buffer). All centrifugation steps are carried out at 4° C. After resuspension in 5 volumes of 50 mM Tris-HCl, pH 7.5, the membrane suspension is frozen rapidly at −80° C. On the day of assay, the membranes are thawed and washed four times by resuspension in 50 mM Tris-HCl, pH 7.5, and centrifugation at 48,000×g for 20 minutes. The final pellet is suspended in assay buffer. […] The final protein concentration used for our studies is 400 μg/ml.
A robotic system designed for binding assays (Tecan Deutschland GmbH, Crailsheim, Germany) is loaded with the membrane solution, solutions for bound control (buffer/DMSO 20%), unlabeled glycine (1 mM) for evaluation of non-specific binding, all compounds to be tested (at 20-fold concentrations), radioligand and respective 96-well plates.
The protein/receptor concentration is held constant whereas the amount of specific bound radioligand is determined using increasing concentrations of ligand.
Firstly, the assay plates are loaded with membrane solution and are shaken at 4° C. The mother plates are then prepared by pipetting the compounds into assay buffer/20% DMSO to obtain the desired final concentrations (dose response curve with five different concentrations, e.g. 10, 3, 1, 0.3, and 0.1 μM). After transferring radioligand into the assay plates, the compounds are added (including the bound and the non-specific binding control). The final DMSO concentration is 1%. The assay plates are incubated and shaken at 4° C. for 1 h, before the mixture is exhausted as rapidly as possible via a vacuum manifold using the Multiscreen HTS glass fibre (type B) filter plates (Millipore, Schwalbach, Germany) under a constant vacuum of 450 mbar. The membranes are washed four times with cold assay buffer ([…]). 50 μL of Ultima Gold scintillation cocktail (PerkinElmer, Rodgau-Jügesheim, Germany) is added to the wet filter plates and incubated at room temperature overnight before counting the disintegration per minutes using a liquid scintillation counter (MicroBeta, PerkinElmer, Rodgau-Jügesheim, Germany).
The residual radioactivity after displacement of the test compound (n=5) is then corrected with respect to the set controls.

SMILES	IC50 [nM]
O=C(COc1cc(C(=O)O)cc2cc(Cl)cc(Cl)c12)N[C@@H]1C[C@H]1c1ccccc1 (relative stereo) [Example 66, 5,7-Dichloro-4-[(trans-2-phenyl-cyclopropylcarbamoyl)-methoxy]-naphthalene-2-carboxylic acid]	935
O=C(COc1cc(C(=O)O)cc2cc(Cl)cc(Cl)c12)Nc1cccc(CO)c1 [Example 10, 5,7-Dichloro-4-[(3-hydroxymethylphenylcarbamoyl)-methoxy]-naphthalene-2-carboxylic acid]	351
O=C(COc1cc(C(=O)O)cc2cc(Cl)cc(Cl)c12)N[C@@H](CO)c1ccccc1 [Example 29]	983
O=C(COc1cc(C(=O)O)cc2cc(Cl)cc(Cl)c12)Nc1ccccc1 [Example 33, 5,7-Dichloro-4-phenylcarbamoylmethoxynaphthalene-2-carboxylic acid]	769
O=C(O)c1cc(OCC(=O)N2CCCC2C(=O)O)c2c(Cl)cc(Cl)cc2c1 (stereo not drawn) [Example 35, 1-[2-(3-Carboxy-6,8-dichloronaphthalen-1-yloxy)-acetyl]-pyrrolidine-2-carboxylic acid]	1420
O=C(O)CC(Cc1ccccc1)NC(=O)COc1cc(C(=O)O)cc2cc(Cl)cc(Cl)c12 (stereo not drawn) [Example 37, 4-[(1-Carboxymethyl-2-phenylethylcarbamoyl)-methoxy]-5,7-dichloronaphthalene-2-carboxylic acid]	4780
O=C(O)c1cc(OCC(=O)N2CC(C(=O)O)Oc3ccccc32)c2c(Cl)cc(Cl)cc2c1 (stereo not drawn) [Example 43, 4-[2-(3-Carboxy-6,8-dichloronaphthalen-1-yloxy)-acetyl]-3,4-dihydro-2H-benzo[1,4]oxazine-2-carboxylic acid]	3070
O=C(O)COc1ccc(NC(=O)COc2cc(C(=O)O)cc3cc(Cl)cc(Cl)c23)cc1 [Example 44, 4-[(4-Carboxymethoxy-phenylcarbamoyl)-methoxy]-5,7-dichloro-naphthalene-2-carboxylic acid]	3390
COC(=O)c1ccccc1NC(=O)COc1cc(C(=O)O)cc2cc(Cl)cc(Cl)c12 [Example 45, 5,7-Dichloro-4-[(2-methoxycarbonyl-phenylcarbamoyl)-methoxy]-naphthalene-2-carboxylic acid]	4270
COc1cccc(CO)c1NC(=O)COc1cc(C(=O)O)cc2cc(Cl)cc(Cl)c12 [Example 76, 5,7-Dichloro-4-[(2-hydroxymethyl-6-methoxy-phenylcarbamoyl)-methoxy]-naphthalene-2-carboxylic acid]	1220
CN(C)CCOc1ccc(NC(=O)COc2cc(C(=O)O)cc3cc(Cl)cc(Cl)c23)cc1CO [Example 87, 5,7-Dichloro-4-{[4-(2-dimethylamino-ethoxy)-3-hydroxymethyl-phenylcarbamoyl]-methoxy}-naphthalene-2-carboxylic acid]	324
CN(C)CCN(C)C(=O)COc1ccccc1NC(=O)COc1cc(C(=O)O)cc2cc(Cl)cc(Cl)c12 [Example 110, 5,7-Dichloro-4-[(2-{[(2-dimethylamino-ethyl)-methyl-carbamoyl]-methoxy}-phenylcarbamoyl)-methoxy]-napthalene-2-carboxylic acid]	1310
N#CCc1ccc(NC(=O)COc2cc(C(=O)O)cc3cc(Cl)cc(Cl)c23)cc1 [Example 112, 5,7-Dichloro-4-[(4-cyanomethyl-phenylcarbamoyl)-methoxy]-naphthalene-2-carboxylic acid]	637
N#Cc1ccc(CNC(=O)COc2cc(C(=O)O)cc3cc(Cl)cc(Cl)c23)cc1 [Example 117, 5,7-Dichloro-4-[(4-cyano-benzylcarbamoyl)-methoxy]-naphthalene-2-carboxylic acid]	1940
CN(C)C(=O)COc1cc(CN)ccc1NC(=O)COc1cc(C(=O)O)cc2cc(Cl)cc(Cl)c12 [Example 123, 4-[(4-Aminomethyl-2-dimethylcarbamoylmethoxy-phenylcarbamoyl)-methoxy]-5,7-dichloronaphthalene-2-carboxylic acid]	113
O=C(COc1cc(C(=O)O)cc2cc(Cl)cc(Cl)c12)NCc1ccccc1OCc1nnn[nH]1 [Example 125, 5,7-Dichloro-4-{[2-(1H-tetrazol-5-ylmethoxy)-benzylcarbamoyl]-methoxy}-naphthalene-2-carboxylic acid]	254

Next, values leading:

IC50 [nM]	SMILES
6740	COc1ccc(C(=O)COc2cc(C(=O)O)cc3cc(Cl)cc(Cl)c23)cc1 [Example 4, 5,7-Dichloro-4-[2-(4-methoxyphenyl)-2-oxo-ethoxy]-naphthalene-2-carboxylic acid]
1790	COc1cccc(NC(=O)COc2cc(C(=O)O)cc3cc(Cl)cc(Cl)c23)c1 [Example 6, 5,7-Dichloro-4-[(3-methoxyphenylcarbamoyl)-methoxy]-naphthalene-2-carboxylic acid]
404	O=C(COc1cc(C(=O)O)cc2cc(Cl)cc(Cl)c12)Nc1ccc(CO)cc1 [Example 9, 5,7-Dichloro-4-[(4-hydroxymethyl-phenylcarbamoyl)-methoxy]-naphthalene-2-carboxylic acid]
3580	CN(C(=O)COc1cc(C(=O)O)cc2cc(Cl)cc(Cl)c12)c1cccc(CC(=O)O)c1 [Example 40, 4-{[(3-Carboxymethylphenyl)-methyl-carbamoyl]-methoxy}-5,7-dichloronaphthalene-2-carboxylic acid]
1560	O=C(COc1cc(C(=O)O)cc2cc(Cl)cc(Cl)c12)NCc1ccccc1OC(F)(F)F [Example 61, 5,7-Dichloro-4-[(2-trifluoromethoxy-benzylcarbamoyl)-methoxy]-naphthalene-2-carboxylic acid]
1260	O=C(COc1cc(C(=O)O)cc2cc(Cl)cc(Cl)c12)Nc1ccc(-c2nnn[nH]2)cc1 [Example 89, 5,7-Dichloro-4-{[4-(1H-tetrazol-5-yl)-phenylcarbamoyl]-methoxy}-naphthalene-2-carboxylic acid]
520	NC(=O)COc1cccc(NC(=O)COc2cc(C(=O)O)cc3cc(Cl)cc(Cl)c23)c1 [Example 93, 4-[(3-Carbamoylmethoxy-phenylcarbamoyl)-methoxy]-5,7-dichloro-naphthalene-2-carboxylic acid]
1120	N#Cc1cccc(NC(=O)COc2cc(C(=O)O)cc3cc(Cl)cc(Cl)c23)c1 [Example 98, 5,7-Dichloro-4-[(3-cyano-phenylcarbamoyl)-methoxy]-naphthalene-2-carboxylic acid]
134	CN(C)C(=O)COc1ccccc1NC(=O)COc1cc(C(=O)O)cc2cc(Cl)cc(Cl)c12 [Example 102, 5,7-Dichloro-4-[(2-dimethylcarbamoylmethoxy-phenylcarbamoyl)-methoxy]-naphthalene-2-carboxylic acid]
650	CN(C)CCNC(=O)COc1ccccc1NC(=O)COc1cc(C(=O)O)cc2cc(Cl)cc(Cl)c12 [Example 109, 5,7-Dichloro-4-({2-[(2-dimethylamino-ethylcarbamoyl)-methoxy]-phenylcarbamoyl}-methoxy)-naphthalene-2-carboxylic acid]
24	CNCc1ccc(NC(=O)COc2cc(C(=O)O)cc3cc(Cl)cc(Cl)c23)c(OCC(=O)O)c1 [Example 111, 4-[(2-Carboxymethoxy-4-methylaminomethyl-phenylcarbamoyl)-methoxy]-5,7-dichloro-naphthalene-2-carboxylic acid]
7	O=C(COc1cc(C(=O)O)cc2cc(Cl)cc(Cl)c12)Nc1cccc2cc(C(=O)O)oc12 [Example 115, 7-[2-(3-Carboxy-6,8-dichloro-naphthalen-1-yloxy)-acetylamino]-benzofuran-2-carboxylic acid]
297	CNC(=O)COc1cc(CN)ccc1NC(=O)COc1cc(C(=O)O)cc2cc(Cl)cc(Cl)c12 [Example 116, 4-[(4-Aminomethyl-2-methylcarbamoylmethoxy-phenylcarbamoyl)-methoxy]-5,7-dichloro-naphthalene-2-carboxylic acid]
428	O=C(COc1cc(C(=O)O)cc2cc(Cl)cc(Cl)c12)Nc1cccc(CO)c1OCCO [Example 124, 5,7-Dichloro-4-{[2-(2-hydroxy-ethoxy)-3-hydroxymethyl-phenylcarbamoyl]-methoxy}-naphthalene-2-carboxylic acid]
